{"source": "ChEMBL document CHEMBL5537120", "about": "(Eur J Med Chem, 2024)", "note": "The source made the active and inactive calls. No cut-off for these calls is given here. Where a SMILES comes first, the peptide text is derived from it. Bridges are numbered along the chain shown (N, C = ends).", "data": [{"tested_on": "SARS-CoV-2", "assay": "Antiviral activity against HIV-1 pseudotyped SARS-CoV-2 Omicron BA.2.75 infected in HEK293T cells harboring ACE2+/NRP1- assessed as reduction in infection rate pretreated with cells for 1 hr followed by viral infection and measured after 2 days by firefly luciferase reporter gene assay", "format": "functional, organism-based", "details": "Severe acute respiratory syndrome coronavirus 2, time 49.0 hrs", "values": [{"smiles": "CC(C)C[C@@H]1NC(=O)[C@@H]2CCCN2C(=O)[C@H](CO)NC(=O)[C@@H](NC(=O)[C@H](Cc2cnc[nH]2)NC(=O)[C@H](CO)NC(=O)[C@H](Cc2ccccc2)NC(=O)[C@H](CC(=O)O)NC(=O)CN)CSSC[C@@H](C(=O)N[C@H](C(=O)N[C@@H](Cc2ccc(O)cc2)C(=O)N2CCC[C@H]2C(=O)N[C@@H](CC(=O)O)C(=O)N2CCC[C@H]2C(=O)N[C@@H](CCC(=O)O)C(=O)NCC(=O)NCC(=O)NCC(=O)N[C@@H](CCCCN)C(=O)N2CCC[C@H]2C(=O)N[C@@H](C)C(=O)N[C@@H](CCCNC(=N)N)C(=O)N2CCC[C@H]2C(=O)N[C@@H](C)C(=O)N[C@@H](CCCNC(=N)N)C(=O)O)[C@@H](C)O)NC(=O)[C@H](CCCCN)NC(=O)[C@H](Cc2ccccc2)NC(=O)[C@H](Cc2c[nH]c3ccccc23)NC(=O)[C@@H]2CCCN2C(=O)[C@H](Cc2ccccc2)NC(=O)[C@H](Cc2ccc(O)cc2)NC(=O)[C@H](CCCNC(=N)N)NC1=O", "note": "(H-GDFSHCSPLRYFPWFKCTYPDPEGGGKPARPAR-OH; disulfide 6-17)", "Activity": "Active"}, {"smiles": "CC[C@H](C)[C@H](NC(=O)[C@H](Cc1ccccc1)NC(=O)[C@H](CCCCN)NC(=O)[C@H](CC(=O)O)NC(=O)CN)C(=O)N[C@H]1CSSC[C@@H](C(=O)N[C@@H](CC(N)=O)C(=O)N[C@@H](Cc2c[nH]c3ccccc23)C(=O)N[C@@H](Cc2ccc(O)cc2)C(=O)N[C@@H](CC(=O)O)C(=O)N2CCC[C@H]2C(=O)N[C@@H](CCC(=O)O)C(=O)NCC(=O)NCC(=O)NCC(=O)N[C@@H](CCCCN)C(=O)NCC(=O)N[C@@H](CC(N)=O)C(=O)N[C@@H](CCCNC(=N)N)C(=O)N2CCC[C@H]2C(=O)N2CCC[C@H]2C(=O)N[C@@H](CCCNC(=N)N)C(=O)O)NC(=O)[C@H](Cc2ccccc2)NC(=O)[C@H](CCCCN)NC(=O)[C@H](Cc2c[nH]c3ccccc23)NC(=O)[C@@H]2CCCN2C(=O)[C@H](CCCCN)NC(=O)[C@H](CC(=O)O)NC(=O)[C@H](CCCNC(=N)N)NC(=O)[C@H]([C@@H](C)CC)NC(=O)[C@@H]2CCCN2C(=O)[C@H](CC(C)C)NC1=O", "note": "(H-GDKFICLPIRDKPWKFCNWYDPEGGGKGNRPPR-OH; disulfide 6-17)", "Activity": "Active"}, {"smiles": "CC(C)C[C@H](NC(=O)[C@H](CC(=O)O)NC(=O)CN)C(=O)N[C@@H](Cc1cnc[nH]1)C(=O)N[C@@H](C)C(=O)N[C@H]1CSSC[C@@H](C(=O)N[C@H](C(=O)N[C@@H](CC(C)C)C(=O)NCC(=O)N[C@@H](CC(=O)O)C(=O)N2CCC[C@H]2C(=O)N[C@@H](CCC(=O)O)C(=O)NCC(=O)NCC(=O)NCC(=O)N[C@@H](CCCNC(=N)N)C(=O)N[C@@H](CO)C(=O)N2CCC[C@H]2C(=O)N[C@@H](CCCNC(=N)N)C(=O)N[C@@H](CCCNC(=N)N)C(=O)N[C@@H](C)C(=O)N[C@@H](CCCNC(=N)N)C(=O)O)[C@@H](C)O)NC(=O)[C@H](C)NC(=O)[C@H](Cc2c[nH]c3ccccc23)NC(=O)[C@H](Cc2c[nH]c3ccccc23)NC(=O)[C@@H]2CCCN2C(=O)[C@H](CC(=O)O)NC(=O)CNC(=O)[C@H](CCCNC(=N)N)NC(=O)[C@H](C(C)C)NC(=O)[C@@H]2CCCN2C(=O)[C@H](CCCNC(=N)N)NC1=O", "note": "(H-GDLHACRPVRGDPWWACTLGDPEGGGRSPRRAR-OH; disulfide 6-17)", "Activity": "Active"}, {"smiles": "CC[C@H](C)[C@@H]1NC(=O)[C@@H]2CCCN2C(=O)[C@H](CO)NC(=O)[C@@H](NC(=O)[C@@H](NC(=O)[C@H](Cc2ccc(O)cc2)NC(=O)[C@H](CCCNC(=N)N)NC(=O)[C@H](CC(=O)O)NC(=O)CN)[C@@H](C)O)CSSC[C@@H](C(=O)N[C@@H](CC(=O)O)C(=O)N[C@@H](CC(C)C)C(=O)NCC(=O)N[C@@H](CC(=O)O)C(=O)N2CCC[C@H]2C(=O)N[C@@H](CCC(=O)O)C(=O)NCC(=O)NCC(=O)NCC(=O)N[C@@H](CCCCN)C(=O)N[C@@H](C)C(=O)N2CCC[C@H]2C(=O)N[C@@H](CCCNC(=N)N)C(=O)N[C@@H](CCCNC(=N)N)C(=O)N[C@@H](C)C(=O)N[C@@H](CCCNC(=N)N)C(=O)O)NC(=O)[C@H](CCCNC(=N)N)NC(=O)[C@H](Cc2c[nH]c3ccccc23)NC(=O)[C@H](Cc2c[nH]c3ccccc23)NC(=O)[C@@H]2CCCN2C(=O)[C@H](Cc2ccccc2)NC(=O)[C@H](CCSC)NC(=O)[C@H](CCCNC(=N)N)NC1=O", "note": "(H-GDRYTCSPIRMFPWWRCDLGDPEGGGKAPRRAR-OH; disulfide 6-17)", "Activity": "Active"}, {"smiles": "CC(C)C[C@@H]1NC(=O)[C@H](C)NC(=O)[C@H](CCCNC(=N)N)NC(=O)[C@@H](NC(=O)[C@@H]2CCCN2C(=O)[C@H](CO)NC(=O)[C@H](Cc2ccc(O)cc2)NC(=O)[C@H](CC(=O)O)NC(=O)CN)CSSC[C@@H](C(=O)N2CCC[C@H]2C(=O)N[C@@H](CO)C(=O)NCC(=O)N[C@@H](CC(=O)O)C(=O)N2CCC[C@H]2C(=O)N[C@@H](CCC(=O)O)C(=O)NCC(=O)NCC(=O)NCC(=O)N[C@@H](CCCNC(=N)N)C(=O)NCC(=O)N[C@@H](CCCNC(=N)N)C(=O)N[C@@H](CCCNC(=N)N)C(=O)N2CCC[C@H]2C(=O)N2CCC[C@H]2C(=O)N[C@@H](CCCNC(=N)N)C(=O)O)NC(=O)[C@H](CCCNC(=N)N)NC(=O)[C@H](Cc2c[nH]c3ccccc23)NC(=O)[C@H](Cc2c[nH]c3ccccc23)NC(=O)[C@@H]2CCCN2C(=O)[C@H](CO)NC(=O)[C@H](Cc2cnc[nH]2)NC(=O)[C@H](CCCNC(=N)N)NC1=O", "note": "(H-GDYSPCRALRHSPWWRCPSGDPEGGGRGRRPPR-OH; disulfide 6-17)", "Activity": "Active"}]}]}
